The values that follow come from ChEMBL document CHEMBL1201862, “PubChem BioAssay data set” (2004).

Some test systems named below: BT-549; NCI-H226; MOLT-4; UACC-62; CAKI-1; UACC-257; MDA-MB-231; SNB-75; NCI-H23; SF-295; NCI/ADR-RES; A549; COLO 205; SNB-19; NCI-H522; OVCAR-4; HCT-15; OVCAR-8; MDA-N; NCI-H460.
Holding throughout (assay): NCI-60 cell line screen, 48 h

Each structure is given as a SMILES string.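 Step 1: Grow cells in 96-well plates. Step 2: Expose to compound for 48 hours at 5 concentrations. Step 3: Interpolate endpoints linearly; if unreached, use highest concentration. GI50 is the concentration that inhibits growth by half.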 The source made the active and inactive calls. Cut-off read from the data, not from the text of the source: active = GI50 up to about 1.1 µM and inactive = higher. Where only a bound is given, the exact number is not on record here.

On to `O=C1c2ccccc2C(=O)N1C1(C(=O)NC2(C(=O)O)CCCC2)CCCC1`, for which the GI50 with BT-549, in the assay with NCI-H226, with MOLT-4, in the assay on UACC-62, with CAKI-1 and with UACC-257 was > 100 µM (inactive) in each case. In addition, the GI50 in the assay with MDA-MB-231, in the assay on SNB-75, in the assay on NCI-H23, in the assay on SF-295, in the assay on NCI/ADR-RES and in the assay with A549 was > 100 µM (inactive) each time. The GI50 with COLO 205 was > 100 µM (inactive); with SNB-19 it was > 100 µM (inactive); in the assay on NCI-H522, > 100 µM (inactive); in the assay on OVCAR-4 it was > 100 µM (inactive); in the assay with HCT-15, greater than 100 µM; in the assay on OVCAR-8 it was > 100 µM (inactive). Besides, the GI50 in the assay with MDA-N was > 100 µM (inactive).

For `O=C(O)/C(=C\c1ccc(O)cc1)c1cccc2ccccc12`, the GI50 in the assay with BT-549, in the assay on NCI-H226, with MOLT-4, in the assay with UACC-62, with CAKI-1 and in the assay with UACC-257 was > 100 µM (inactive) in each case. Besides, the GI50 in the assay with MDA-MB-231, in the assay on SNB-75, with NCI-H23, in the assay with SF-295, in the assay on NCI/ADR-RES and in the assay on NCI-H460 was > 100 µM (inactive) each time. In addition, the GI50 was > 100 µM (inactive) with A549; > 100 µM (inactive) with SNB-19; > 100 µM (inactive) in the assay on NCI-H522; > 100 µM (inactive) with OVCAR-4; greater than 100 µM with HCT-15; > 100 µM (inactive) in the assay on OVCAR-8. For the same compound, the GI50 with MDA-N was > 100 µM (inactive).

As for `O=C(/C=C/c1ccc(-c2ccccc2)cc1)NCc1ccc(C(=O)NCc2ccccc2)cc1`, the GI50 in the assay on BT-549, in the assay on NCI-H226, in the assay with UACC-62, in the assay on CAKI-1, with UACC-257 and with MDA-MB-231 was > 100 µM (inactive) each time. The GI50 in the assay on SNB-75 is > 100 µM (inactive); in the assay on NCI-H23, 90.2 µM (inactive); in the assay with SF-295, > 100 µM (inactive); in the assay with NCI/ADR-RES, > 100 µM (inactive); in the assay with NCI-H460 it was > 100 µM (inactive); in the assay with A549, > 100 µM (inactive). The GI50 was > 100 µM (inactive) in the assay with COLO 205; > 100 µM (inactive) in the assay on SNB-19; > 100 µM (inactive) in the assay on NCI-H522; > 100 µM (inactive) with OVCAR-4; greater than 100 µM in the assay with HCT-15; > 100 µM (inactive) in the assay on OVCAR-8. Also, the GI50 in the assay on MDA-N is > 100 µM (inactive).

For `COc1cccc2c1-c1nc(N)c3c(OC)cccc3c1C2=O`, the GI50 in the assay with BT-549 was > 100 µM (inactive); in the assay with NCI-H226, 48.3 µM (inactive); in the assay with MOLT-4, 53.5 µM (inactive); with UACC-62, > 100 µM (inactive); in the assay with CAKI-1, > 100 µM (inactive); with UACC-257, > 100 µM (inactive). Moreover, the GI50 in the assay on MDA-MB-231 is 19.1 µM (inactive); in the assay with SNB-75, 22.3 µM (inactive); in the assay on NCI-H23 it was 24.9 µM (inactive); in the assay on SF-295 it was > 100 µM (inactive); in the assay on NCI/ADR-RES, > 100 µM (inactive); in the assay with A549 it was > 100 µM (inactive). In addition, the GI50 was > 100 µM (inactive) in the assay on COLO 205; > 100 µM (inactive) in the assay on NCI-H522; 62.8 µM (inactive) in the assay with OVCAR-4; 28.9 µM in the assay on HCT-15; 85.5 µM (inactive) in the assay on OVCAR-8; > 100 µM (inactive) with MDA-N.

With `O=C(O)c1nc2ccc(C(F)(F)F)cc2nc1Nc1ccc(F)cc1`, the GI50 in the assay with BT-549 was 12.5 µM (inactive); in the assay with NCI-H226 it was 18.1 µM (inactive); in the assay with MOLT-4 it was 9.57 µM (inactive); in the assay with UACC-62, 11.7 µM (inactive); with CAKI-1, 30 µM (inactive); in the assay on UACC-257, 22.3 µM (inactive). Moreover, the GI50 in the assay on MDA-MB-231 was 25.1 µM (inactive); in the assay with SNB-75, 23.3 µM (inactive); with NCI-H23, 15.2 µM (inactive); in the assay on SF-295, 11.5 µM (inactive); in the assay on NCI/ADR-RES it was 20.2 µM (inactive); with NCI-H460, 16.1 µM (inactive). The GI50 with COLO 205 is 19.5 µM (inactive); in the assay on SNB-19, > 10 µM (inactive); with NCI-H522, 6.07 µM (inactive); with OVCAR-4, 22.6 µM (inactive); in the assay on HCT-15 it was 20.7 µM; in the assay with OVCAR-8 it was 17.2 µM (inactive). The GI50 with MDA-N is 27.5 µM (inactive).

For `CC(C)=CC[C@]12CCN(C)[C@H]1N(S(=O)(=O)c1ccccc1)c1ccccc12`, the GI50 is > 56.5 µM (inactive) with BT-549; > 38.5 µM (inactive) in the assay with NCI-H226; > 43.4 µM (inactive) in the assay on MOLT-4; > 35.6 µM (inactive) in the assay with UACC-62; > 25.6 µM (inactive) in the assay with CAKI-1; > 39.5 µM (inactive) with UACC-257. In addition, the GI50 is > 52.4 µM (inactive) in the assay on MDA-MB-231; 17.3 µM (inactive) in the assay on SNB-75; > 19.9 µM (inactive) in the assay with NCI-H23; > 54.7 µM (inactive) in the assay with SF-295; > 82.8 µM (inactive) in the assay with NCI/ADR-RES; > 40.4 µM (inactive) in the assay on NCI-H460. Besides, the GI50 in the assay on SNB-19 was > 20.3 µM (inactive); with NCI-H522 it was 15.8 µM (inactive); with OVCAR-4, 43.6 µM (inactive); in the assay with HCT-15, greater than 47.2 µM; in the assay with OVCAR-8 it was > 64 µM (inactive); in the assay on MDA-N, 48.2 µM (inactive).

With `N#Cc1nc(C2CC2)oc1N`, the GI50 in the assay with BT-549, in the assay with NCI-H226, in the assay on MOLT-4, in the assay with UACC-62, in the assay on CAKI-1 and with UACC-257 was > 100 µM (inactive) each time. Moreover, the GI50 with MDA-MB-231, in the assay on SNB-75, in the assay with NCI-H23, with SF-295, in the assay with NCI/ADR-RES and in the assay on A549 was > 100 µM (inactive) throughout. Further, the GI50 is > 100 µM (inactive) in the assay with COLO 205; > 100 µM (inactive) with SNB-19; 25.2 µM (inactive) with NCI-H522; > 100 µM (inactive) in the assay on OVCAR-4; greater than 100 µM with HCT-15; > 100 µM (inactive) in the assay on OVCAR-8. In the assay with MDA-N, the GI50 was > 100 µM (inactive).

Regarding `CCC1=C(CC2NCCc3ccccc32)CC2c3cc(OC)c(OC)cc3CCN2C1` (configuration not stated), the GI50 with BT-549 was 2.14 µM (inactive); in the assay with NCI-H226, 0.757 µM (active); with MOLT-4, 0.276 µM (active); in the assay with UACC-62, 1.29 µM (inactive); in the assay on CAKI-1, 0.473 µM (active); in the assay on UACC-257 it was 1.02 µM (active). Moreover, the GI50 is 0.358 µM (active) in the assay on MDA-MB-231; 0.531 µM (active) in the assay with SNB-75; 0.94 µM (active) in the assay with NCI-H23; 0.565 µM (active) in the assay with SF-295; 1.3 µM (inactive) in the assay on NCI/ADR-RES; 0.3 µM (active) in the assay with NCI-H460. The GI50 in the assay with A549 is 0.343 µM (active); in the assay with SNB-19, 0.614 µM (active); in the assay on NCI-H522 it was 0.316 µM (active); in the assay with OVCAR-4 it was 0.237 µM (active); with HCT-15, 0.552 µM; with OVCAR-8 it was 0.445 µM (active). Also, the GI50 with MDA-N is 0.452 µM (active).

Turning to `CC(C)[Si](OC1=C(C(=O)N(C)c2ccccc2Cl)CCC1)(C(C)C)C(C)C`, the GI50 with BT-549 is 15.8 µM (inactive); in the assay on NCI-H226, 21.1 µM (inactive); in the assay on MOLT-4 it was 30.3 µM (inactive); in the assay with CAKI-1 it was 18.7 µM (inactive); in the assay on UACC-257 it was 19 µM (inactive); in the assay on MDA-MB-231, 16 µM (inactive). For the same compound, the GI50 in the assay with SNB-75 was 13.3 µM (inactive); in the assay on NCI-H23, 15.7 µM (inactive); in the assay on SF-295 it was 14.2 µM (inactive); in the assay with NCI/ADR-RES, 16.2 µM (inactive); with NCI-H460, 22.4 µM (inactive); in the assay with A549, 15 µM (inactive). The GI50 in the assay with COLO 205 was 17.8 µM (inactive); with SNB-19, 15.8 µM (inactive); in the assay on NCI-H522 it was 14.1 µM (inactive); with OVCAR-4, 16.3 µM (inactive); with HCT-15, 16.5 µM; in the assay on OVCAR-8 it was 17 µM (inactive). Besides, the GI50 in the assay on MDA-N is 19.8 µM (inactive).

Consider `O=S1(=O)c2ccccc2C(=NO)c2ccccc21`, for which the GI50 is 59.2 µM (inactive) in the assay on BT-549; > 100 µM (inactive) in the assay with NCI-H226; 30.3 µM (inactive) in the assay on MOLT-4; > 100 µM (inactive) with UACC-62; > 100 µM (inactive) with CAKI-1; > 100 µM (inactive) with UACC-257. Besides, the GI50 is > 100 µM (inactive) with MDA-MB-231; > 100 µM (inactive) in the assay with SNB-75; > 100 µM (inactive) in the assay on NCI-H23; > 100 µM (inactive) with SF-295; 57.3 µM (inactive) in the assay on NCI/ADR-RES; > 100 µM (inactive) in the assay on NCI-H460. Moreover, the GI50 was > 100 µM (inactive) with A549; > 100 µM (inactive) in the assay on COLO 205; 37.1 µM (inactive) in the assay on NCI-H522; > 100 µM (inactive) with OVCAR-4; greater than 100 µM in the assay on HCT-15; > 100 µM (inactive) in the assay with OVCAR-8. Also, in the assay on MDA-N, the GI50 is > 100 µM (inactive).

For the compound `COC(=O)c1ccc2[nH]c3c(c2c1)CC(=O)Nc1ccccc1-3`, the GI50 in the assay with BT-549 is 1.86 µM (inactive); with NCI-H226 it was 7.31 µM (inactive); in the assay on MOLT-4, 1.31 µM (inactive); in the assay with UACC-62 it was > 100 µM (inactive); in the assay on CAKI-1, 56 µM (inactive); in the assay with UACC-257, > 100 µM (inactive). For the same compound, the GI50 with MDA-MB-231 is 12.4 µM (inactive); with SNB-75 it was 2.3 µM (inactive); in the assay on SF-295 it was > 100 µM (inactive); in the assay on NCI/ADR-RES, > 100 µM (inactive); in the assay on NCI-H460, > 100 µM (inactive); with A549, > 100 µM (inactive). Also, the GI50 with COLO 205 is > 100 µM (inactive); in the assay with SNB-19 it was > 100 µM (inactive); in the assay on NCI-H522, > 100 µM (inactive); in the assay with OVCAR-4 it was 0.673 µM (active); with HCT-15, greater than 100 µM; in the assay on OVCAR-8, 5.9 µM (inactive). Further, in the assay with MDA-N, the GI50 was > 100 µM (inactive).
